Data published in patent US20140328814A1, “ANTIMICROBIAL AND […] PROBIOTIC COMPOSITION, FOOD PRODUCT AND DIETARY SUPPLEMENT COMPRISING MICROORGANISM STRAIN LACTOBACILLUS […] TENSIA DSM 21380 AND METHOD FOR SUPPRESSING CONTAMINATING MICROBES IN A FOOD PRODUCT” (Oü Tervisliku Piima Biotehnoloogiate Arenduskeskus …, priority 2008, published 2014).
≈ marks a conversion by molar mass, not a printed value.

Assays:
[1] = test system: Lactobacillus plantarum Tensia DSM 21380; assay: Antibiotic resistance, E-test MIC; type: cell-based; settings: E-test strips
Method: Method. Lactobacillus plantarum Tensia DSM 21380 was tested using antibiotic strips of the E-test (AB Biodisk, Solna).

L. plantarum DSM 21379 = assay: Antibiotic resistance, E-test MIC, control strain; type: cell-based, Lactobacillus plantarum; settings: E-test strips

Molecule	MIC L. plantarum Tensia DSM 21380 [1]	MIC Control strain L. plantarum DSM 21379 (L. plantarum DSM 21379)
CC[C@H]1OC(=O)[C@H](C)[C@@H](O[C@H]2C[C@@](C)(OC)[C@@H](O)[C@H](C)O2)[C@H](C)[C@@H](O[C@@H]2O[C@H](C)C[C@H](N(C)C)[C@H]2O)[C@](C)(O)C[C@@H](C)C(=O)[C@H](C)[C@@H](O)[C@]1(C)O [Erytromycin]	0.19 µg/mL (≈ 0.259 µM)	0.25 µg/mL (≈ 0.341 µM)
Cipro/ofloxacin	32 µg/mL	32 µg/mL
Gentamicin	1.5 µg/mL	1 µg/mL
Quinopristin/dalfopristin	1 µg/mL	1 µg/mL
